Measurements as given in article PMC9820303, “^αN-Acetyl β-Endorphin Is an Endogenous Ligand of σ1Rs That Regulates Mu-Opioid Receptor Signaling by Exchanging G Proteins for σ2Rs in σ1R Oligomers” (International Journal of Molecular Sciences, 2022).
No end group written: not given here.

What was measured:
σ1R-σ2R = σ1R-σ2R (Mus musculus, UniProt O55242); test: In vitro σ1R-σ2R association of recombinant proteins (HaloLink-σ2R, Western blot); assay type: biochemical, murine; parameters: The coding region of the full-length murine σ1R (AF004927); GST (N, cleaved yes); made in house; host or cells: E. coli BL21 (KRX); details: increasing concentrations; 30 min RT; vs control without ligand
Sequence of σ1R-σ2R (O55242 whole entry): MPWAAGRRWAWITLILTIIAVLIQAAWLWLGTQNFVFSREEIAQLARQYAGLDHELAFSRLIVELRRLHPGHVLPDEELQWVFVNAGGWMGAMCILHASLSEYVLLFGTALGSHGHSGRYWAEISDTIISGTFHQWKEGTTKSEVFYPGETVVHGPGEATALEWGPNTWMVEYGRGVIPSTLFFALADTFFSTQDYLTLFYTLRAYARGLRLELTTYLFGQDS
Experimental: (§1) Figure 7 Effect of β-End 1–31, ^αN-acetyl β-End 1–31 and their N-terminal derivatives on σ1R-σ2R, σ1R-NR1 C1 and σ1R-BiP associations. Amino acid sequence of β-End 1–31 showing derivatives 1–26 and 1–27. (A) HaloLink-attached σ2Rs were incubated for 30 min at RT in the presence of σ1Rs (100 nM) in 300 μL of 50 mM Tris-HCl (pH 7.4), 0.2% CHAPS, and 2.5 mM CaCl2. After removing the unbound σ1R proteins, the effects of increasing the peptide concentrations on σ1R-σ2R associations were studied. At the end of the incubation, protein complexes bound to HaloLink-σ2R were obtained by centrifugation, washed three times, solubilized in 2× Laemmli buffer containing β-mercaptoethanol, resolved by SDS-PAGE, and analyzed by Western blotting (for more details, see Section 4). This protocol was also used to assess the effect of ligands on (B) σ1R-NR1 C1 and (C) σ1R-BiP associations. Data were compared to that of the control, which was obtained in the absence of ligands. (A–C) Data are the mean ± SD, n = 3. (D) The β-End 1–31 structural models were predicted by Novafold (DNASTAR Lasergene protein v.17, Inc., Madison, WI, USA). Ribbon model: The 3D structure, charge distribution and hydrophobicity map of β-End 1–31 are shown. Positive charges are shown in red and negative charges in blue. Polar surfaces are shown in yellow, and nonpolar surfaces are shown in orange. Linear model: the opioid (1–5) and flexible region (8–11) sequences are shown in green and orange, respectively, and the amphiphilic helix (15–25) is shown in pink.
(§2) The recombinant σ1R (100 nM) was incubated either with Haloprotein (negative control) or together with the immobilized σ2R, NR1 C0-C1-C2 or BiP proteins in 300 µL of a buffer containing 50 mM Tris-HCl (pH 7.4) and 0.2% CHAPS in the presence of 2.5 mM CaCl2 for 30 min at RT. After removal of the unbound σ1R, the agarose-attached complexes were incubated for 30 min with rotation at RT in the presence of increasing concentrations of the ligands in a final reaction volume of 300 µL [50 mM Tris-HCl (pH 7.4), 2.5 mM CaCl2 and 0.2% CHAPS]. Ligands were usually dissolved in aqueous solutions; however, when an organic solvent such as DMSO was required to incorporate, e.g., pregnenolone sulfate, the solvent remained below 1% in the assay buffer. Agarose pellets containing the bound proteins were obtained by centrifugation, washed and resuspended thrice in the presence of 2.5 mM CaCl2, solubilized in 2× Laemmli buffer plus β-mercaptoethanol, and analyzed by Western blotting.
(§3) Because all the assays were performed with recombinant proteins, the immune signals provided a single band of the expected size, which was used for the subsequent densitometry analysis. Accordingly, no other regions of the blots provided information and were routinely excluded from the analysis.
Figure S7. Effect of σ1R agonist/antagonist ligands on σ1R-σ2R heterodimers. (A-C) Agarose (Θ)- attached σ2Rs captured recombinant σ1Rs. After removing unbound σ1R proteins, the Θ-σ2R.σ1R complexes were incubated with a ﬁxed concentration of a selected L1 ligand (indicated in brackets) in the absence and presence of increasing concentrations of competing σ1R ligands as indicated. The σ1Rs that remained attached to the Θ-σ2Rs were evaluated by Western blotting. * Signiﬁcant differences with respect to the control group that was incubated without L1 ligands. ANOVA followed by the Holm-Sidak multiple comparisons test, p < 0.05. For details, see Methods and Figure 6A. Representative blots are […]
Figure S8. Effect of the physiological and nonphysiological sequences of β-End 1-31 and classical σ1R ligands on BiP-σ1R, σ2R-σ1R and NR1 C1-σ1R associations . Agarose-BiP was loaded with σ1Rs, and after the unbound σ1Rs were removed, the agarose-BiP-σ1R complexes were incubated in the absence (control) and presence of increasing concentrations of (A) β-End 1-31 C-terminal physiological derivatives and (B) classical σ1R ligands. C) Agarose-σ2R loaded with σ1Rs was incubated in the […]

σ1R-BiP = target: T1, σ1R-BiP (Mus musculus, UniProt O55242); test: In vitro σ1R-BiP association of recombinant proteins (Western blot); assay type: biochemical; details: for effect on σ1R-BiP association: increasing concentrations, 30 min RT, vs control without ligand
T1 construct: The coding region of the full-length murine σ1R (AF004927); GST (N, cleaved yes); host or cells: E. coli BL21 (KRX) for σ1R
T1 sequence (O55242 whole entry): as above
Experimental: as §1, §2, §3
Figure S8. Effect of the physiological and nonphysiological sequences of β-End 1-31 and classical σ1R ligands on BiP-σ1R, σ2R-σ1R and NR1 C1-σ1R associations . Agarose-BiP was loaded with σ1Rs, and after the unbound σ1Rs were removed, the agarose-BiP-σ1R complexes were incubated in the absence (control) and presence of increasing concentrations of (A) β-End 1-31 C-terminal physiological derivatives and (B) classical σ1R ligands. C) Agarose-σ2R loaded with σ1Rs was incubated in the absence (control) and with nonphysiological derivatives of β-End 1-31. D) Agarose-NR1 C1 loaded with σ1Rs were incubated in the absence (control) and with nonphysiological derivatives of β-End 1-31. A-D) The σ1Rs that remained attached to the agarose complexes were evaluated by Western blotting. The […]
(§4) (1 picture or pasted object on this page, not shown here)
Figure S10. Effect of σ1R agonist/antagonist ligands on σ1R-BiP associations. Agarose-attached BiP proteins were incubated for 30 min in the presence of recombinant σ1R (100 nM) proteins in 300 μL of 50 mM Tris-HCl (pH 7.4), 0.2% CHAPS, and 2.5 mM CaCl2. After the unbound σ1R proteins were […]

σ1R-NR1 C1 = target: T2, σ1R-NR1 C1 (Mus musculus, UniProt O55242); test: In vitro σ1R-NR1 C1 association of recombinant proteins (Western blot); assay type: biochemical, murine; details: increasing concentrations; 30 min RT; vs control without ligand
T2 construct: The coding region of the full-length murine σ1R (AF004927); GST (N, cleaved yes); made in house; host or cells: E. coli BL21 (KRX)
T2 sequence (O55242 whole entry): as above
Experimental: as §1, §2, §3
Figure S8. Effect of the physiological and nonphysiological sequences of β-End 1-31 and classical σ1R ligands on BiP-σ1R, σ2R-σ1R and NR1 C1-σ1R associations . […]
D) Agarose-NR1 C1 loaded with […]
σ1Rs were incubated in the absence (control) and with nonphysiological derivatives of β-End 1-31. A-D) The σ1Rs that remained attached to the agarose complexes were evaluated by Western blotting. The […]
as §4
Figure S9. Effect of σ1R agonist/antagonist ligands on σ1R-NR1 C1 associations. Θ-Agarose-NR1 C1 was loaded with recombinant σ1Rs. After unbound σ1R proteins were removed, the complexes were incubated with (A) 1 nM β-End 1-31, (B) αN-acetyl β-End 1-31, (C-D) β-End 28-31 in the absence (black columns) and presence of (A) 10 nM or (B-D) increasing concentrations of competing σ1R ligands as indicated. The σ1Rs that remained attached to the Θ-σ2Rs were evaluated by Western blotting. The […]
Prog is progesterone; PregSulfate is pregnenolone sulfate; Nac is […]

Compound	effect on σ1R-σ2R association (σ1R-σ2R)	effect on σ1R-BiP association (σ1R-BiP)	effect on σ1R-NR1 C1 association (σ1R-NR1 C1)	activity at σ1R-BiP against agonists / β-End 1–31 (σ1R-BiP; 1 nM β-End 1–31 with increasing competitor (Figure S10))
CC(=O)[C@H]1CC[C@H]2[C@@H]3CCC4=CC(=O)CC[C@]4(C)[C@H]3CC[C@]12C [progesterone, Progesterone, reference compound]	did the opposite	did the opposite	did the opposite	–
Pregnenolone sulfate [reference compound]	impaired σ1R associations with σ2R and BiP	impaired σ1R associations with σ2R and BiP	increased σ1R-NR1 C1 complexes	–
^αN-acetyl β-End 1–26: ^αN-acetylated form of β-End 1–26 (Ac-YGGFMTSEKSQTPLVTLFKNAIIKNA; UniProt P01189 237-262, looked up, fragment)	–	promoted σ1R-BiP complexes	separated σ1Rs from NR1 C1 subunits at pM concentrations	antagonist activity
